Bounds are passed on as bounds.

The target in the first experiment is T1, pY641-STAT6 in PBMC (Homo sapiens, UniProt P42226).
T1 construct: Cryopreserved Peripheral Blood Mononuclear Cells (PBMC) are from AllCells; host or cells: cryopreserved PBMC
T1 sequence (P42226 1-847): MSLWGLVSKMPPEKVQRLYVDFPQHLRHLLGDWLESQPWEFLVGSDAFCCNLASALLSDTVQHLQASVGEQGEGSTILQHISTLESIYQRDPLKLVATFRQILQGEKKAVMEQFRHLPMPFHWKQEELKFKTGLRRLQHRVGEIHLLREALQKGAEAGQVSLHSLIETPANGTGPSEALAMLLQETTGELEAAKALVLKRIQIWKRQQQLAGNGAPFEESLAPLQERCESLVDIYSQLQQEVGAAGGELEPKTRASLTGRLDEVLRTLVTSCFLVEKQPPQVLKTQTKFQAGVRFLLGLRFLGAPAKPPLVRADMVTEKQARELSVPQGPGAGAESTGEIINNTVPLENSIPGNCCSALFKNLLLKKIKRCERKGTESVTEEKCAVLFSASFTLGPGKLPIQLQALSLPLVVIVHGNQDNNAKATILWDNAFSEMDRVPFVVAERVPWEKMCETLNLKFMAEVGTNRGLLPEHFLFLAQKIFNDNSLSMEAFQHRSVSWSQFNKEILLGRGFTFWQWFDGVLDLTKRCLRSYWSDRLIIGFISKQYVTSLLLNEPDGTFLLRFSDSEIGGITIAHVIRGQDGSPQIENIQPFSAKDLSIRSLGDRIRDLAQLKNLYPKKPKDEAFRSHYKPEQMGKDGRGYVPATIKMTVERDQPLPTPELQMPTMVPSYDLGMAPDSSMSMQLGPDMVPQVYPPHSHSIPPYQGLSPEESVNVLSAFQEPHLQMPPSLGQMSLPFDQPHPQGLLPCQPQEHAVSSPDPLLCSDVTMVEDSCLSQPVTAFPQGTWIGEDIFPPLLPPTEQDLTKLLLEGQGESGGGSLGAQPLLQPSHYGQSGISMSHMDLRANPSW
Briefly: MSD-pSTAT-PBMC Assay (pSTAT6, IL-4 stimulated). The experiment is classed as cell-based. As to conditions: STAT6, PBMC, compound 3 hrs, then 1 ng/mL IL-4 for 10 min; Table 115. A digest of the protocol: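 Thawed human PBMC rested overnight in IMDM/10% FBS, then got compound for 3 hrs before a 10 min cytokine pulse: 1 ng/mL IL-4 for pSTAT6, 10 ng/mL IL-6 for pSTAT3. Lysates went to MSD sandwich capture on total STAT6 or STAT3 with phospho-specific detection. IC50 came from background-subtracted, DMSO-normalized signal.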
In the case of `CCCOC(=O)[C@H](C)NP(=O)(Oc1ccccc1)[C@@H](F)c1ccc2sc(C(=O)N[C@H]3CCCC[C@H]4CC[C@@H](C(=O)N5C(=O)N(c6cncc(C(F)F)c6)C(=O)C56CC6)N4C3=O)cc2c1` (stereo partly drawn) [Compound 333, propyl (((R)-(2-(((3S,6S,10aS)-3-(6-(5-(difluoromethyl)pyridin-3-yl)-5,7-dioxo-4,6-diazaspiro[2.4]heptane-4-carbonyl)-5-oxodecahydropyrrolo [1,2-a]azocin-6-yl)carbamoyl)benzo [b]thiophen-5-yl)fluoromethyl) (phenoxy)phosphoryl)-L-alaninate], the IC50 is over 3000 nM.

As for `CCCOC(=O)[C@H](C)NP(=O)(Oc1ccccc1)C(F)c1ccc2ccc(C(=O)N[C@H]3CCCC[C@H]4CC[C@@H](C(=O)N5C[C@H](c6ccccc6)[C@@H](C#N)C56CC6)N4C3=O)cc2c1` (stereo partly drawn) [Compound 442, propyl (((7-(((3S,6S,10aS)-3-((6S,7R)-7-cyano-6-phenyl-4-azaspiro[2.4]heptane-4-carbonyl)-5-oxodecahydropyrrolo [1,2-a]azocin-6-yl)carbamoyl)naphthalen-2-yl)fluoromethyl) (phenoxy)phosphoryl)-L-alaninate], the IC50 is under 100 nM.

Turning to `CCCOC(=O)[C@H](C)NP(=O)(Oc1ccccc1)C(F)c1ccc2ccc(C(=O)N[C@H]3CCC[C@H]4CC[C@@H](C(=O)N5CC(c6cccnc6)CC56CC6)N4C3=O)cc2c1` (stereo partly drawn) [Compound 453, propyl ((fluoro(7-(((3S,6S,9aS)-5-oxo-3-(6-(pyridin-3-yl)-4-azaspiro[2.4]heptane-4-carbonyl)octahydro-1H-pyrrolo[1,2-a]azepin-6-yl)carbamoyl)naphthalen-2-yl)methyl)(phenoxy)phosphoryl)-L-alaninate], the IC50 lay within 100 to 1000 nM.

On to `COC(C)(C)COC(=O)[C@H](C)NP(=O)(Oc1ccccc1)[C@@H](F)c1ccc2sc(C(=O)N[C@H]3CCCC[C@H]4CC[C@@H](C(=O)N5C[C@@H](c6cccnc6)CC56CC6)N4C3=O)cc2c1` (stereo partly drawn) [Compound 358, 2-methoxy-2-methylpropyl (((R)-fluoro(2-(((3S,6S,10aS)-5-oxo-3-((R)-6-(pyridin-3-yl)-4-azaspiro[2.4]heptane-4-carbonyl)decahydropyrrolo[1,2-a]azocin-6-yl)carbamoyl)benzo [b]thiophen-5-yl)methyl)(phenoxy)phosphoryl)-L-alaninate], for which the IC50 was under 100 nM.

In the case of `CCCOC(=O)[C@H](C)NP(=O)(Oc1ccccc1)[C@@H](F)c1ccc2sc(C(=O)N[C@H]3CC[C@H](N4CCC4)C[C@H]4CC[C@@H](C(=O)N5C[C@@H](c6ccccc6)[C@H](C#N)C56CC6)N4C3=O)cc2c1` (stereo partly drawn) [Compound 489, propyl (((R)-(2-(((3S,6S,9S,10aR)-9-(azetidin-1-yl)-3-((6R,7S)-7-cyano-6-phenyl-4-azaspiro[2.4]heptane-4-carbonyl)-5-oxodecahydropyrrolo [1,2-a]azocin-6-yl)carbamoyl)benzo [b]thiophen-5-yl)fluoromethyl) (phenoxy)phosphoryl)-L-alaninate], the IC50 was in the range of 100 to 1000 nM.

`CCCOC(=O)[C@H](C)NP(=O)(Oc1ccccc1)[C@@H](F)c1ccc2sc(C(=O)N[C@H]3CCC[C@H]4CC[C@@H](C(=O)N5C[C@@H](c6cccc(C)c6)[C@H](C#N)C56CC6)N4C3=O)cc2c1` (single isomer, unassigned) [Compound 341] registered an IC50 of under 100 nM.

In the case of `CC(C)OC(=O)[C@H](C)NP(=O)(Cc1ccc2sc(C(=O)N[C@H]3CCCC[C@H]4CC[C@@H](C(=O)N5C[C@@H](c6cccnc6)CC56CC6)N4C3=O)cc2c1)Oc1ccccc1` (stereo partly drawn) [Compound 475, isopropyl (((2-(((3S,6S,10aS)-5-oxo-3-((R)-6-(pyridin-3-yl)-4-azaspiro[2.4]heptane-4-carbonyl)decahydropyrrolo[1,2-a]azocin-6-yl)carbamoyl)benzo [b]thiophen-5-yl)methyl)(phenoxy)phosphoryl)-L-alaninate], the IC50 fell in the range of 100 to 1000 nM.

`CCCOC(=O)[C@H](C)N[P@@](=O)(Oc1ccccc1)[C@@H](F)c1ccc2sc(C(=O)N[C@H]3CCCC[C@H]4CC[C@@H](C(=O)N5C[C@@H](c6cccnc6)CC56CC6)N4C3=O)cc2c1` (stereo in doubt) [Compound 460, propyl (((R)-fluoro(2-(((3S,6S,10aS)-5-oxo-3-((S)-6-(pyridin-3-yl)-4-azaspiro[2.4]heptane-4-carbonyl)decahydropyrrolo[1,2-a]azocin-6-yl)carbamoyl)benzo [b]thiophen-5-yl)methyl)(phenoxy)phosphoryl)-L-alaninate] came in with an IC50 of under 100 nM.

For the molecule `COCCOC(=O)[C@H](C)NP(=O)(Oc1ccccc1)[C@@H](F)c1ccc2sc(C(=O)N[C@H]3CCCC[C@H]4CC[C@@H](C(=O)N5C[C@H](c6ccccc6)[C@@H](C#N)C56CC6)N4C3=O)cc2c1` (stereo partly drawn) [Compound 375, 2-methoxyethyl (((R)-(2-(((3S,6S,10aS)-3-((6S,7R)-7-cyano-6-phenyl-4-azaspiro[2.4]heptane-4-carbonyl)-5-oxodecahydropyrrolo [1,2-a]azocin-6-yl)carbamoyl)benzo [b]thiophen-5-yl)fluoromethyl) (phenoxy)phosphoryl)-L-alaninate], the IC50 was under 100 nM.

The molecule `CCCOC(=O)[C@H](C)NP(=O)(Oc1cccc(OCCOC)c1)[C@@H](F)c1ccc2sc(C(=O)N[C@H]3CCC[C@H]4CC[C@@H](C(=O)N5C[C@@H](c6cccnc6)CC56CC6)N4C3=O)cc2c1` (stereo partly drawn) [Compound 357, propyl (((R)-fluoro(2-(((3S,6S,9aS)-5-oxo-3-((R)-6-(pyridin-3-yl)-4-azaspiro[2.4]heptane-4-carbonyl)octahydro-1H-pyrrolo[1,2-a]azepin-6-yl)carbamoyl)benzo [b]thiophen-5-yl)methyl)(3-(2-methoxyethoxy)phenoxy)phosphoryl)-L-alaninate] registered an IC50 of under 100 nM.

Regarding `C[C@H](NP(=O)(Oc1ccccc1)[C@H](F)c1ccc2sc(C(=O)N[C@H]3CCC[C@H]4CC[C@@H](C(=O)N5C[C@H](c6ccccc6)[C@@H](C#N)C56CC6)N4C3=O)cc2c1)C(=O)OC1CC1` (stereo partly drawn) [Compound 350, cyclopropyl (((S)-(2-(((3S,6S,9aS)-3-((6S,7R)-7-cyano-6-phenyl-4-azaspiro[2.4]heptane-4-carbonyl)-5-oxooctahydro-1H-pyrrolo[1,2-a]azepin-6-yl)carbamoyl)benzo [b]thiophen-5-yl)fluoromethyl) (phenoxy)phosphoryl)-L-alaninate], the IC50 is under 100 nM.

`CCCOC(=O)[C@H](C)NP(=O)(Oc1ccccc1)[C@H](F)c1ccc2sc(C(=O)N[C@H]3CCC[C@H]4CC[C@@H](C(=O)N5C[C@@H](c6ccccc6)[C@H](C#N)C56CC6)N4C3=O)cc2c1` (stereo partly drawn) [Compound 387, propyl (((S)-(2-(((3S,6S,9aS)-3-((6R,7S)-7-cyano-6-phenyl-4-azaspiro[2.4]heptane-4-carbonyl)-5-oxooctahydro-1H-pyrrolo[1,2-a]azepin-6-yl)carbamoyl)benzo [b]thiophen-5-yl)fluoromethyl) (phenoxy)phosphoryl)-L-alaninate] returned an IC50 of under 100 nM.

The same experiment, now with this note: read-out: STAT6; PBMC, compound 3 hrs, then 1 ng/mL IL-4 for 10 min; Table 115.
As to `CCCOC(=O)[C@H](C)NP(=O)(Oc1ccccc1)[C@@H](F)c1ccc2sc(C(=O)N[C@H]3CCCC[C@H]4CC[C@@H](C(=O)N5C[C@H](c6cccc(C#N)c6)[C@@H](C#N)C56CC6)N4C3=O)cc2c1` (single isomer, unassigned) [Compound 340], the IC50 was under 100 nM.

The values are drawn from patent US20250215029A1 (Recludix Pharma, Inc., priority 2022, published 2025).
